Measured values as given in PubChem BioAssay (NCI).
Several values for one entry are separate records, joined by “and”; a condition that tells them apart may be missing. Equal values may be shown once.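 Compound exposure: 48 hours, 5 concentrations, 96-well plates. GI50: concentration for 50% inhibition of growth. TGI: concentration producing complete growth inhibition.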

Assays:
Assay in all cases: NCI-60 cell line screen, 48 h
[1] = tested on: NCI-H23 lung
[2] = tested on: K-562 leukemia
[3] = tested on: T-47D breast
[4] = tested on: SF-268 CNS
[5] = tested on: OVCAR-5 ovarian
[6] = tested on: A549 NSCLC
[7] = tested on: IGROV1 ovarian
[8] = tested on: UACC-257 melanoma
[9] = tested on: LOX IMVI melanoma
[10] = tested on: MDA-MB-435

SMILES | GI50 [1] [nM] | TGI [1] | GI50 [2] [nM] | TGI [2] [µM] | GI50 [3] [nM] | TGI [3] [µM] | GI50 [4] [µM] | TGI [4] [µM] | GI50 [5] [µM] | TGI [5] [µM] | GI50 [6] [nM] | TGI [6] | GI50 [7] | TGI [7] | GI50 [8] [µM] | TGI [8] [µM] | GI50 [9] [nM] | TGI [9] [µM] | GI50 [10] [nM] | TGI [10] [µM]
Clc1ccc(OCc2nnc3n2N=C(c2ccc(Cl)cc2Cl)CS3)cc1 | 17100 | 37.9 µM | 32500 | > 100 | 38500 | > 100 | 17.4 | 40.2 | 22.1 | 81 | 32600 | > 100 µM | 19800 nM | 50.8 µM | 25 | 50 | 16200 | 30.9 | 22400 | 59.8
O=C1c2ccccc2-c2c1c1ccccc1c(=O)n2CCCNCCCCNCCCN1C(=O)c2ccccc2C2C(=O)c3ccccc3C21 (stereo not drawn) | 319 | 0.999 µM | 182 | 0.727 | 643 | 1.77 | 0.238 | 1.42 | 0.57 | 1.19 | 45.1 | 0.881 µM | 988 nM | 10.7 µM | 3.86 | 11.7 | 27.8 | 0.253 | 805 | 2.83
COc1cc(C(=O)Nc2cc(OC)c3ccn(C)c3c2)cc2c1C[C@]1(C)CC[C@@H](O)C(C)(C)[C@H]1O2 | 2320 | 18.4 µM | 597 | > 100 | 1800 | 14.8 | 1.99 | > 100 | 4.14 | > 100 |  | 33.7 µM | 1700 nM | > 100 µM | 1.63 | 30.7 | 1010 | 10.1 | 1010 | 3.38
O=c1oc2ccc(Br)cc2c(=O)n1-c1ccc(I)cc1F | 328 | 1.89 µM | 389 | > 100 | 279 | 1.52 | 0.383 | 4.82 | 3.59 | > 100 | 717 | 22.9 µM | 378 nM | 18.9 µM | 0.328 | 1.91 | 393 | 2.94 | 409 | 3.82
Cn1c(/C=C/[N+](=O)[O-])cc2ccccc21 | 2730 | 17.1 µM | 2900 | > 100 | 2790 | 8.61 | 11.7 | 27.4 | 21.2 | 56.6 | 2680 | 7.83 µM | 2050 nM | 5.44 µM | 2.11 | 6.86 | 1670 | 3.44 | 1690 | 4.34
Cn1c(=O)c(Oc2ccc(F)cc2F)cc2cnc(NC3CCS(=O)(=O)CC3)nc21 | > 25000 | > 25 µM | > 25000 | > 25 | > 19800 | > 25 | > 18.9 | > 25 | > 25 | > 25 | > 25000 | > 25 µM | > 21200 nM | > 25 µM | > 25 | > 25 | > 25000 | > 25 | > 25000 | > 25
CC(C)(C)c1c2c(c(C(C)(C)C)c3c1OCN(Cc1ccccc1)C3)OCN(Cc1ccccc1)C2 |  | 27.4 µM |  | 54.5 |  | > 100 |  | 35.6 |  | 39 |  | 39.8 µM |  | 45.1 µM |  | 29.1 |  | 31.5 |  | > 100
O=C(O)c1ccc(C(=O)O)c(C(=O)Nc2ccc3c(c2)C(=O)c2ccccc2-3)c1 |  | > 100 µM |  | > 100 |  | > 100 |  | > 100 |  | > 100 |  | > 100 µM |  | > 100 µM |  | > 100 |  | > 100 |  | > 100
COc1ccc(-n2ccnc2-c2cc(OC)c(OC)c(OC)c2)cc1 | 3300 | 65 µM | 3140 | > 100 | 8480 | > 100 | 8.69 | > 100 | 10.1 | > 100 | 6570 | > 100 µM | 2420 nM | > 100 µM | 6.64 | > 100 | 7990 | > 100 | 303 | 1.32
CCCCCCCCC(=O)OCC(CS[As](C)C)OC(=O)CCCCCCCC (stereo not drawn) | 593 | 1.5 µM | 342 | 12.9 | 267 | 20.1 | 3.53 | 25.9 | 3.22 | 10 | 8360 | 41.7 µM | 5100 nM | > 48.4 µM | 1.4 | 15.3 | 1090 | 5.7 | 196 | 0.652
CN1C/C=C/CCOc2cccc(c2)-c2ccnc(n2)Nc2cccc(c2)C1 | 57.7 | 0.289 µM | 98.9 | > 20.8 | 43.7 | 0.447 | 0.0425 | 0.264 | 0.0323 | 2.08 | 39.4 | 1.12 µM | 32.4 nM | 0.338 µM | 0.0505 | 0.225 | 24.8 | 1.12 | 36.6 | 0.153
COc1cc([C@@H]2C[C@H]2c2cc(SC)n[nH]2)cc(OC)c1OC | 21100 | 58 µM | 21000 | > 100 | 16500 | > 100 | 15.1 | 50 | 37.9 | 90.1 | 25900 | > 100 µM | 18300 nM | > 100 µM | 17.7 | 50.7 | 93900 | > 100 | 11200 | 26.5
CCOc1cccc(-c2nc(N)nc(Nc3ccccc3SSc3ccccc3Nc3nc(N)nc(-c4cccc(OCC)c4)n3)n2)c1 | 3790 | > 100 µM | 3330 | > 100 | 2420 | > 100 | 3.84 | > 100 | 3.42 | 44.1 | 2020 | 4.78 µM | 3650 nM | 97 µM | > 100 | > 100 | 1510 | 3.22 | 8100 | > 100
CCN(CC)C1CCC(Nc2c(C(C)=O)cnc3ccc(-c4ccc(O)c(Cl)c4)cc23)CC1 (stereo not drawn) | 474 | 3.1 µM | 125 | 5.72 | 1940 | > 100 | 0.487 | 12.2 | 2.4 | > 96.3 | 580 | 5.52 µM | 253 nM | 5.47 µM | 2.77 | 18.3 | 336 | 1.58 | 651 | 10.5
COc1cc2c(cc1OC)C1Cc3cc(OC)c(OC)cc3C(C2)N1C |  | > 100 µM |  | > 100 |  | > 75 |  | > 100 |  | > 100 |  | > 100 µM |  | > 75 µM |  | > 100 |  | > 75 |  | > 75
CC(C)(C)CC(N)=O |  | > 100 µM |  | > 100 |  | > 100 |  | > 100 |  | > 100 |  | > 100 µM |  | > 100 µM |  | > 100 |  | > 100 |  | > 100
CC(=O)Oc1ccc(/C(=C(\C)c2ccc(Cl)cc2)c2ccc(OCCN3CCCCC3)cc2)cc1 | 1820 | 4.43 µM | 1210 | 3.59 | 1090 | 4.37 | 1.82 | 3.86 | 2.72 | 8.35 | 1940 | 4.15 µM | 2350 nM | 5.14 µM | 2.05 | 4.11 | 1650 | 3.01 | 1700 | 3.26
Cc1ccc(Cl)c(Nc2ccccc2C(=O)O)c1Cl | 21600 | 51.4 µM | 33200 | > 100 | 33400 | > 100 | 31.8 | > 100 | 31.9 | 98.9 | 30400 | > 100 µM | 32300 nM | 93.4 µM | 27.4 | > 100 | 18700 | 44.9 | 23800 | 85.3
CC1OC(OC2C(OC3CCC4(C)C(CCC5(C)C4CC=C4C6CC(C)(C)CCC6(C(=O)O)CCC45C)C3(C)CO)OCC(O)C2O)C(O)C(O)C1O (stereo not drawn) |  | 33.1 µM |  | 44.7 |  | 46.8 |  | 37.6 |  | 38.4 |  | 38.2 µM |  | 32.9 µM |  | 41.2 |  | 53.5 |  | 43
Oc1cc2ccccc2c(-c2c(O)c(O)cc3ccccc23)c1O | 703 | 15.4 µM | 73.8 |  | 319 | 14.5 | 1.88 | 23.3 | 4.54 | 24.1 | 410 | 19.3 µM | 273 nM | 3.4 µM | 3.24 | 24.3 | 939 | 8.57 | 1170 | 12.4
COc1cc(C(=O)N/N=C/c2ccc(N(C)C)cc2)cc(OC)c1OC | 588 | > 100 µM | 353 | > 100 | > 100000 | > 100 | 1.12 | > 100 | 3.29 | > 100 | 502 | > 100 µM | 1150 nM | > 100 µM |  | > 100 | 736 | > 100 | 74.3 | 0.307
COc1ccc(C2C(C)C(=O)C(C)C(c3ccc(OC)cc3)N2N=O)cc1 (stereo not drawn) | > 750000 | > 750 µM and 713 µM | > 750000 | > 1000 |  | 713 | 78.1 | > 1000 |  | > 977 | 409000 | 750 µM and > 1000 µM | > 90800 nM and 138000 nM | 391 µM and 656 µM |  | > 1000 | > 750000 | > 1000 |  | 343
Cn1c(NCC(O)CN2CCCC2)cc(=O)n(C)c1=O (stereo not drawn) | > 100000 | > 100 µM | > 100000 | > 100 | > 100000 | > 100 | > 100 | > 100 | > 100 | > 100 | > 100000 | > 100 µM | > 100000 nM | > 100 µM | > 100 | > 100 | > 100000 | > 100 | > 100000 | > 100
O=C1c2cccc(NCCN=Cc3ccccc3O)c2C(=O)c2c(NCCN=Cc3ccccc3O)cccc21 | 1010 | 3.2 µM | 406 | 5.14 | 684 | 4.46 | 0.349 | 1.46 | 1.41 | 5.43 | 668 | 14.3 µM | 237 nM | 0.504 µM | 1.44 | 4.3 | 534 | 2.44 | 1160 | 2.87
COc1cc(/C=C2\C[C@H]3[C@@H]4CC=C5C[C@@H](O)CC[C@]5(C)[C@H]4CC[C@]3(C)[C@H]2O)ccc1OCCCn1ccnc1 | 9310 | 40.8 µM | 2690 | > 50 | 17700 | > 50 | 3.82 | 19.2 | 7.14 | 23.3 | 1180 | 2.63 µM | 12500 nM | > 50 µM | 6.3 | 15.4 | 988 | 2.01 | 3520 | 12.6
COc1ccc(/C=C/C(=O)c2ccc(OC)c(OC)c2)cc1O | 9910 | 30.4 µM | 3310 | > 100 | 5740 | 25.5 | 8.74 | 29.1 | 4.94 | 28.9 | 2990 | 15.1 µM | 7030 nM | 39.9 µM | 13.8 | 26.9 | 5690 | 18.6 | 5220 | 23.5
